Consider 11 compounds from patent publication US9365566B2 (Takeda Pharmaceutical Company Limited, priority 2012, dated 2016).

The term IC50 denotes the concentration at which inhibition is half-maximal. The low end stands for inhibition by little substance, the high end for a need for much substance.

The target in the assay is T1, human BTK (Homo sapiens, UniProt Q06187).
T1 construct: GST (Glutathione-S-Transferase) (cleaved yes); made in house; host or cells: Spodoptera frugiperda Sf9 cells (baculovirus, Bac-to-Bac)
T1 sequence (Q06187 382-659): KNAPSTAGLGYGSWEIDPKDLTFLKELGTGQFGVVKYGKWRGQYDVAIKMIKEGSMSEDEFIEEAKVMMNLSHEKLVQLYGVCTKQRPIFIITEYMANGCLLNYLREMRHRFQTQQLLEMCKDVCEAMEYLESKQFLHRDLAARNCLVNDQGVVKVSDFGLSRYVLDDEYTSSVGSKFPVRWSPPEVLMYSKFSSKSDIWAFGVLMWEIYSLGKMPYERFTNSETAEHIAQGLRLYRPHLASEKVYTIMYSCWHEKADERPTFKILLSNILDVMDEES
Description: BTK inhibition assay: BTK-mediated phosphorylation of FAM-labeled substrate 5-FAM-EEPLYWSFPAKKK-NH2 (Caliper LC-3000). The following applies: pIC50 = -log(IC50), IC50 molar; residues 382 to 659 of human BTK; incubated at room temperature for 60 minutes; larger values represent higher potency. The assay is classed as biochemical.
Turning to `Cc1ccc2c(N)c(C(N)=O)nnc2c1-c1ccc2c(c1)CN(CCC(C)(C)O)C2=O` [Example 128, 4-amino-8-(2-(3-hydroxy-3-methylbutyl)-1-oxoisoindolin-5-yl)-7-methylcinnoline-3-carboxamide], the IC50 was 7.94 nM. Take `CCc1ccc2c(N)c(C(N)=O)nnc2c1-c1ccc2c(c1)CNC2=O` [Example 129, 4-amino-7-ethyl-8-(1-oxoisoindolin-5-yl)cinnoline-3-carboxamide]: the IC50 is 5.01 nM. The result for `N#Cc1nc2ccc(-c3cccc4c(N)c(C(N)=O)nnc34)cc2[nH]1` [Example 130, 4-amino-8-(2-cyano-1H-benzo[d]imidazol-6-yl)cinnoline-3-carboxamide] reads 200 nM; that for `CCn1cnc2ccc(-c3c(C)ccc4c(N)c(C(N)=O)nnc34)cc21` [Example 131, 4-amino-8-(1-ethyl-1H-benzo[d]imidazol-6-yl)-7-methylcinnoline-3-carboxamide], 100 nM. With `CCn1cnc2cc(-c3c(C)ccc4c(N)c(C(N)=O)nnc34)ccc21` [Example 132, 4-amino-8-(1-ethyl-1H-benzo[d]imidazol-5-yl)-7-methylcinnoline-3-carboxamide], the IC50 is 1260 nM. The same measure for `Cc1ccc2c(N)c(C(N)=O)nnc2c1-c1ccc2ncn(CCC#N)c2c1` [Example 133, 4-amino-8-(1-(2-cyanoethyl)-1H-benzo[d]imidazol-6-yl)-7-methylcinnoline-3-carboxamide]: 501 nM. The same measure for `Cc1ccc2c(N)c(C(N)=O)nnc2c1-c1ccc2ncn(CCO)c2c1` [Example 134, 4-amino-8-(1-(2-hydroxyethyl)-1H-benzo[d]imidazol-6-yl)-7-methylcinnoline-3-carboxamide]: 794 nM. The same measure for `N#Cc1ccc2c(N)c(C(N)=O)nnc2c1-c1ccc2cn[nH]c2c1` [Example 135, 4-amino-7-cyano-8-(1H-indazol-6-yl)cinnoline-3-carboxamide]: 126 nM; for `Cc1cc2cn[nH]c2cc1-c1cc(F)cc2c(N)c(C(N)=O)nnc12` [Example 136, 4-amino-6-fluoro-8-(5-methyl-1H-indazol-6-yl)cinnoline-3-carboxamide]: 10 nM. `Cc1cc2cn[nH]c2cc1-c1cc(N2CCOCC2)cc2c(N)c(C(N)=O)nnc12` [Example 137, 4-amino-8-(5-methyl-1H-indazol-6-yl)-6-morpholinocinnoline-3-carboxamide] showed an IC50 of 7.94 nM.

For the compound `Cc1cc2cn[nH]c2cc1-c1cc(N2CCC(O)CC2)cc2c(N)c(C(N)=O)nnc12` [Example 138, 4-amino-6-(4-hydroxypiperidin-1-yl)-8-(5-methyl-1H-indazol-6-yl)cinnoline-3-carboxamide], it took 12.6 nM to reach half-maximal inhibition (IC50).
